ChEMBL document CHEMBL3044726, “Synthesis and Acaricidal Activities of New Benzophenone O-Methyloximes” (2001)
Values after ≈ are worked out from the molar mass of the structure shown.

How the values were obtained:
Format in all cases: functional
Tetranychus urticae [1] = assay: Acaricidal activity against Tetranychus urticae (two-spotted spider mite) in two-leaf stage of kidney bean leaf surface at 500 ppm after 6 hr relative to control
Tetranychus urticae [2] = assay: Acaricidal activity against Tetranychus urticae (two-spotted spider mite) in two-leaf stage of kidney bean leaf surface at 15.6 ppm after 6 hr relative to control
Tetranychus urticae [3] = assay: Acaricidal activity against Tetranychus urticae (two-spotted spider mite) in two-leaf stage of kidney bean leaf surface at 62.5 ppm after 6 hr relative to control
Tetranychus urticae [4] = assay: Acaricidal activity against Tetranychus urticae (two-spotted spider mite) in two-leaf stage of kidney bean leaf surface at 250 ppm after 6 hr relative to control
Tetranychus kanzawai = assay: Acaricidal activity against Tetranychus kanzawai in kidney bean leaf surface after 48 hr
Tetranychus urticae [5] = assay: Acaricidal activity against Tetranychus urticae (two-spotted spider mite) in kidney bean leaf surface after 48 hr

SMILES	Activity (Tetranychus urticae [1]) [%]	also measured
CO/N=C(/c1ccc(Cl)cc1)c1ccccc1COc1nnc(C(F)(F)F)s1	0	
CO/N=C(/c1ccc(Cl)cc1)c1ccccc1COc1ncccc1C(F)(F)F	0	
CO/N=C(/c1ccc(Cl)cc1)c1ccccc1COc1ncc(C(F)(F)F)cc1Cl	0	
CO/N=C(/c1ccccc1)c1ccccc1COc1ccc(C(F)(F)F)cn1	0	
CON=C(c1ccccc1F)c1ccccc1COc1ccc(C(F)(F)F)cn1	0	
CO/N=C(/c1cccc(F)c1)c1ccccc1COc1ccc(C(F)(F)F)cn1	70	
CO/N=C(/c1ccc(F)cc1)c1ccccc1COc1ccc(C(F)(F)F)cn1	95	Activity (Tetranychus urticae [2]): 0%; Activity (Tetranychus urticae [3]): 70%; Activity (Tetranychus urticae [4]): 95%
CO/N=C(/c1ccccc1Cl)c1ccccc1COc1ccc(C(F)(F)F)cn1	0	
CO/N=C(/c1cccc(Cl)c1)c1ccccc1COc1ccc(C(F)(F)F)cn1	0	
CO/N=C(/c1ccc(C)cc1)c1ccccc1COc1ccc(C(F)(F)F)cn1	0	
CO/N=C(/c1ccc(OC)cc1)c1ccccc1COc1ccc(C(F)(F)F)cn1	0	
CO/N=C(/c1ccc(Br)cc1)c1ccccc1COc1ccc(C(F)(F)F)cn1	95	Activity (Tetranychus urticae [2]): 70%; Activity (Tetranychus urticae [3]): 95%; Activity (Tetranychus urticae [4]): 95%
CO/N=C(/c1ccc(C(F)(F)F)cc1)c1ccccc1COc1ccc(C(F)(F)F)cn1	95	LC50 (Tetranychus kanzawai): 7.2 µg/mL (≈ 15.8 µM); LC50 (Tetranychus urticae [5]): 24.8 µg/mL (≈ 54.6 µM); Activity (Tetranychus urticae [2]): 70%; Activity (Tetranychus urticae [3]): 95%; Activity (Tetranychus urticae [4]): 95%
CO/N=C(/c1ccc(OC(F)(F)F)cc1)c1ccccc1COc1ccc(C(F)(F)F)cn1	95	Activity (Tetranychus urticae [2]): 0%; Activity (Tetranychus urticae [3]): 70%; Activity (Tetranychus urticae [4]): 70%
CO/N=C(/c1ccc([N+](=O)[O-])cc1)c1ccccc1COc1ccc(C(F)(F)F)cn1	95	Activity (Tetranychus urticae [2]): 0%; Activity (Tetranychus urticae [3]): 70%; Activity (Tetranychus urticae [4]): 95%
CO/N=C(/c1ccc(C#N)cc1)c1ccccc1COc1ccc(C(F)(F)F)cn1	95	Activity (Tetranychus urticae [2]): 0%; Activity (Tetranychus urticae [3]): 70%; Activity (Tetranychus urticae [4]): 95%
CO/N=C(/c1ccc(-c2ccccc2)cc1)c1ccccc1COc1ccc(C(F)(F)F)cn1	0	
CO/N=C(/c1ccc(Oc2ccccc2)cc1)c1ccccc1COc1ccc(C(F)(F)F)cn1	0	
CO/N=C(/c1ccc(Cl)cc1)c1ccccc1COc1ccccc1	0	
CO/N=C(/c1ccc(Cl)cc1)c1ccccc1COc1ccccc1Cl	0	

SMILES	Activity (Tetranychus urticae [1]) [%]	also measured
CO/N=C(/c1ccc(Cl)cc1)c1ccccc1COc1cccc(Cl)c1	0	
CO/N=C(/c1ccc(Cl)cc1)c1ccccc1COc1ccc(Cl)cc1	0	
CO/N=C(/c1ccc(Cl)cc1)c1ccccc1COc1ccccc1C(F)(F)F	0	
CO/N=C(/c1ccc(Cl)cc1)c1ccccc1COc1cccc(C(F)(F)F)c1	0	
CO/N=C(/c1ccc(Cl)cc1)c1ccccc1COc1ccc(C(F)(F)F)cc1	95	Activity (Tetranychus urticae [3]): 0%; Activity (Tetranychus urticae [4]): 95%
CO/N=C(/c1ccc(Cl)cc1)c1ccccc1COc1ccc(C)cc1	0	
CO/N=C(/c1ccc(Cl)cc1)c1ccccc1COc1ccc(C(C)(C)C)cc1	0	
CO/N=C(/c1ccc(Cl)cc1)c1ccccc1COc1ccc(OC(F)(F)F)cc1	0	
CO/N=C(/c1ccc(Cl)cc1)c1ccccc1COc1ccc(-c2ccccc2)cc1	0	
CO/N=C(\c1ccc(Cl)cc1)c1ccccc1COc1ccc(C(F)(F)F)cc1	95	Activity (Tetranychus urticae [4]): 70%
CON=C(c1ccc(Cl)cc1)c1cccc(COc2ccc(C(F)(F)F)cc2)c1	0	
CON=C(c1ccc(Cl)cc1)c1ccc(COc2ccc(C(F)(F)F)cc2)cc1	0	
CO/N=C(\c1ccc(F)cc1)c1ccccc1COc1ccc(C(F)(F)F)cc1	70	
CO/N=C(/c1ccc(F)cc1)c1ccccc1COc1ccc(C(F)(F)F)cc1	95	Activity (Tetranychus urticae [4]): 0%
CON=C(c1ccc(F)cc1)c1cccc(COc2ccc(C(F)(F)F)cc2)c1	0	
CON=C(c1ccc(F)cc1)c1ccc(COc2ccc(C(F)(F)F)cc2)cc1	0	
CO/N=C(/c1ccc(Cl)cc1)c1ccccc1Oc1ccc(C(F)(F)F)cc1	0	
CO/N=C(/c1ccc(Cl)cc1)c1ccccc1OCc1ccc(C(F)(F)F)cc1	0	
CO/N=C(/c1ccc(Cl)cc1)c1ccccc1COc1ccc(C(F)(F)F)cn1	95	LC50 (Tetranychus kanzawai): 9 µg/mL (≈ 21.4 µM); LC50 (Tetranychus urticae [5]): 16.4 µg/mL (≈ 39 µM); Activity (Tetranychus urticae [2]): 95%; Activity (Tetranychus urticae [3]): 95%; Activity (Tetranychus urticae [4]): 95%
CC(C)(C)c1ccc(CSc2cnn(C(C)(C)C)c(=O)c2Cl)cc1 [PYRIDABEN]		LC50 (Tetranychus kanzawai): 33.7 µg/mL (≈ 92.3 µM); LC50 (Tetranychus urticae [5]): 34.5 µg/mL (≈ 94.5 µM)
